Measurements published in PubChem BioAssay (NCI).
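Briefly, cells in 96-well plates were exposed to five compound concentrations for 48 h, and endpoints were estimated by linear interpolation. GI50 = concentration required for 50% inhibition of growth. TGI marks complete inhibition of growth.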

Columns and labels:
Experiment in all cases: DTP human tumour cell line panel, 48 h
[1] = tested on: BT-549 breast
[2] = tested on: T-47D breast
[3] = tested on: MDA-N
[4] = tested on: DMS 114 small cell lung
[5] = tested on: DMS 273 small cell lung
[6] = tested on: M19-MEL melanoma
[7] = tested on: RXF-631 renal
[8] = tested on: XF 498 CNS
[9] = tested on: HOP-18 NSCLC

## CC(C)(C)OC(=O)N1CCN(CCn2cc(C(F)(F)F)c3c(Cl)ncnc32)CC1
[1]
  GI50: 1.55 µM
  TGI: 2.92 µM
[2]
  GI50: 11.5 µM
  TGI: 34.5 µM

## C[C@H]1[C@H](C)CC[C@]2(CO)CC[C@]3(C)C(=CC[C@@H]4[C@@]5(C)CCCNC(C)(C)[C@@H]5CC[C@]43C)[C@H]12
[2]
  GI50: 1.68 µM
  TGI: 4.03 µM

## O=C1Nc2ccccc2/C1=C/C(=O)c1coc2c1C(=O)c1ccccc1C2=O
[2]
  GI50: 56.9 µM
  TGI: > 100 µM

## N#CC(NC12CC3CC(CC(C3)C1)C2)c1ccc2c(c1)OCO2 (stereo not drawn)
[1]
  TGI: > 100 µM
[3]
  TGI: > 100 µM
[2]
  TGI: > 100 µM

## COC(=O)N/N=C(\Cc1ccccc1)CN(C)C
[4]
  TGI: > 100 µM
[5]
  TGI: > 100 µM
[6]
  TGI: > 100 µM
[7]
  TGI: > 100 µM
[8]
  TGI: > 100 µM

## c1ccc2[nH]c(-c3ccc(-c4nccc5c4[nH]c4ccccc45)cc3)nc2c1
[1]
  GI50: 2.12 µM
  TGI: 5.42 µM
[2]
  GI50: 2.02 µM
  TGI: 6.19 µM

## Cn1cc(C(=O)NCCC(=N)N)cc1NC(=O)C1=[N+](C)C=C(NC(=O)c2cccc(C(=O)NC3=CC(C(=O)Nc4cc(C(=O)NCCC(=N)N)cn4C)=[N+](C)C3)c2)C1
[4]
  TGI: > 100 µM
[5]
  TGI: > 100 µM
[9]
  TGI: > 100 µM
[6]
  TGI: > 100 µM
[8]
  TGI: > 100 µM

## CC(C)(C)n1cc(-c2ccnc(NCCCNS(=O)(=O)c3ccc(C(F)(F)F)cc3)c2)c(-c2cccc(O)c2)n1
[1]
  GI50: 1.61 µM
  TGI: 3.05 µM
[2]
  GI50: 2.24 µM
  TGI: 6.61 µM

## C=C(C)C(=O)O[C@H]1CC(=C)[C@@H]2C[C@H](O)[C@](O)(CCl)[C@@H]2[C@H]2OC(=O)C(=C)[C@@H]21
[1]
  GI50: 1.84 µM
  TGI: 3.45 µM

## Cc1nn2c(/C=C3\C(=O)Nc4ccc(Cl)cc43)c(C)nc2s1
[1]
  GI50: 63.2 µM
  TGI: > 100 µM
[2]
  GI50: 42.8 µM
  TGI: > 100 µM

## Nc1c(C(=O)c2cccc(-c3ccncc3)c2)cnn1-c1ccc(F)cc1F
[1]
  GI50: 11.1 µM
  TGI: > 25 µM
[2]
  GI50: 3.67 µM
  TGI: > 25 µM

## O=C1c2ccccc2C(O)(O)C1(O)C1(O)C(=O)c2ccccc2C1(O)O (stereo not drawn)
[1]
  TGI: > 100 µM
[3]
  TGI: 48 µM
[2]
  TGI: 60.3 µM

## COc1cc2c(c(OC)c1OC)-c1ccc(SC)c(=O)cc1C(CO)C2 (stereo not drawn)
[4]
  GI50: < 0.01 µM
[9]
  TGI: > 100 µM
[6]
  GI50: < 0.01 µM
  TGI: > 100 µM
[7]
  TGI: > 100 µM
[8]
  TGI: 0.605 µM

## COc1cc(/C=C2/C(=O)N(C(=O)OCC(C)C)C(Cc3cc(OC)c(OC)c(C)c3OC)C(=O)N2Cc2ccccc2)c(OC)c(C)c1OC (stereo not drawn)
[4]
  TGI: > 100 µM
[5]
  TGI: > 100 µM
[9]
  TGI: > 100 µM
[6]
  TGI: > 100 µM
[7]
  TGI: > 100 µM

## CCN(CC)CCCCNc1c2ccccc2[n+](C)c2c1[nH]c1ccccc12
[1]
  GI50: 1.67 µM
  TGI: 4.15 µM
[2]
  GI50: 0.178 µM
  TGI: 1.1 µM

## COc1cc(CSc2nc3ccc(C)cc3c(=O)n2-c2ccccc2)cc(OC)c1OC
[1]
  GI50: 5.28 µM
  TGI: > 100 µM
[2]
  GI50: 1.56 µM
  TGI: > 100 µM

## CC(=O)CC(=O)OC1CC(C)CCC1C(C)C (stereo not drawn)
[4]
  TGI: > 100 µM
[5]
  TGI: > 100 µM
[6]
  TGI: > 100 µM
[7]
  TGI: > 100 µM
[8]
  TGI: > 100 µM

## CN(O)c1nc(N(C)O)nc(N2CCOCC2)n1
[1]
  GI50: 5.34 µM
  TGI: > 100 µM
[2]
  GI50: 8.07 µM
  TGI: > 100 µM

## COc1ccc(C(=O)c2cc(OC)c(OC)c(OC)c2)cc1OC(=O)CCl
[1]
  GI50: < 0.0192 µM
[2]
  GI50: 3.03 µM
  TGI: 97.3 µM

## COc1cc(C(=O)O[C@H](C(=O)NCCCCCNC(=O)[C@@H](OC(=O)c2cc(OC)cc3c(C)cccc23)[C@]2(C)CO2)[C@]2(C)CO2)c2cccc(C)c2c1
[1]
  GI50: 1.13 µM
  TGI: 5.8 µM
[2]
  GI50: 1 µM

## O=C(O)C(/C=C/c1ccccc1)c1ccccc1 (stereo not drawn)
[1]
  TGI: > 100 µM
[3]
  TGI: > 100 µM
[2]
  TGI: > 100 µM

## CCCCOC(=O)C1C2CCC(O2)C1C(=O)OCCCC (stereo not drawn)
[4]
  TGI: > 55.7 µM
[5]
  TGI: > 100 µM
[9]
  TGI: > 100 µM
[6]
  TGI: > 100 µM
[8]
  TGI: > 100 µM

## CC(C)N(Cc1ccccc1)c1c(S)ssc1=S
[1]
  GI50: 3.01 µM
  TGI: 9.21 µM
[2]
  GI50: 1.17 µM
  TGI: 18.6 µM

## COc1cc2c(cc1C)NC(=O)/C2=C/c1ccccn1
[2]
  GI50: 19.3 µM
  TGI: > 100 µM

## COc1ccc(-c2cn(-c3cc(OC)c(OC)c(OC)c3)c(SCc3ccccc3)n2)cc1OC
[1]
  GI50: > 100 µM
  TGI: > 100 µM
[2]
  GI50: 41.5 µM
  TGI: > 100 µM

## COc1cc([N+](=O)[O-])c(OC)cc1-c1nc2sc(Cl)cn2c1/C(N)=N/C(=N)N
[1]
  GI50: 11.4 µM
  TGI: 47.5 µM
[2]
  GI50: 2.31 µM
  TGI: 5.63 µM

## Oc1c(C(Nc2cccc3cccnc23)c2ccccc2)ccc2cccnc12 (stereo not drawn)
[4]
  TGI: 15.6 µM
[5]
  TGI: > 100 µM
[9]
  TGI: 93.2 µM
[6]
  TGI: > 100 µM

## Fc1ccc2c(c1)C1=NN(c3ccccc3)C(F)C1CO2 (stereo not drawn)
[1]
  GI50: 10.4 µM
  TGI: 22.2 µM

## COc1cc2ccc(/C=C\[N+](=O)[O-])cc2cc1OC
[1]
  TGI: 5.74 µM
[3]
  TGI: 5.78 µM
[2]
  TGI: 12.5 µM

## C(#Cc1ccccc1C#Cc1cccs1)c1cccs1
[1]
  GI50: > 100 µM
  TGI: > 100 µM
[2]
  GI50: 30.2 µM
  TGI: > 100 µM

## O=C(CCCCCCCCC(=O)N/N=C\c1ccccc1O)N/N=C\c1ccccc1O
[1]
  GI50: 0.982 µM
  TGI: > 100 µM
[2]
  GI50: 2.89 µM
  TGI: > 49.4 µM

## CCC[CH2][Sn]1([CH2]CCC)[O]C(=O)c2cccnc2[O]1
[4]
  GI50: 1.95 µM
  TGI: 4.05 µM
[5]
  GI50: 2.37 µM
  TGI: 11.3 µM
[6]
  GI50: 4.26 µM
  TGI: 15.3 µM
[7]
  GI50: 1.43 µM
  TGI: 2.73 µM
[8]
  GI50: 1.38 µM
  TGI: 2.92 µM

## CN(CCCn1c2c(c3ccccc3c1=O)C(=O)c1ccccc1-2)CCCn1c2c(c3ccccc3c1=O)C(=O)c1ccccc1-2
[1]
  GI50: 22 µM
  TGI: 83.1 µM
[2]
  GI50: 0.259 µM
  TGI: 18.3 µM

## Cc1ccc(Nc2n[nH]c(=S)s2)cc1C
[1]
  TGI: > 100 µM
[3]
  TGI: > 100 µM
[2]
  TGI: > 100 µM

## O=C(O)CNC(=O)c1ccc(-c2ccccc2)cc1
[3]
  TGI: > 100 µM
[2]
  TGI: > 100 µM

## C#Cc1c(F)ccc2cc(O)cc(-c3ncc4c(N5CC6CCC(C5)N6)nc(OC[C@@]56CCCN5C[C@H](F)C6)nc4c3F)c12
[1]
  GI50: 8.22 µM
  TGI: 22.8 µM
[2]
  GI50: 16.3 µM
  TGI: 40.1 µM
